Assay results taken from PMC10552107 (ACS Omega, 2023).

Assays:
[1] = molecular target: PD-L1 receptor (Mus musculus, UniProt Q9EP73); assay: Membrane receptor expression analysis using flow cytometry; type: cell-based, murine; settings: 4T1, 500 nM, APC-conjugated PD-L1 antibody
[2] = test system: CD47/SIRPα axis; assay: In vitro phagocytosis assay, BMDMs cocultured with CT26.CL25; type: cell-based, BALB/c mice; settings: 30 min treatment of CT26.CL25, 200 nM; comparison of the two treated groups

Chain of PD-L1 receptor (Q9EP73 19-290): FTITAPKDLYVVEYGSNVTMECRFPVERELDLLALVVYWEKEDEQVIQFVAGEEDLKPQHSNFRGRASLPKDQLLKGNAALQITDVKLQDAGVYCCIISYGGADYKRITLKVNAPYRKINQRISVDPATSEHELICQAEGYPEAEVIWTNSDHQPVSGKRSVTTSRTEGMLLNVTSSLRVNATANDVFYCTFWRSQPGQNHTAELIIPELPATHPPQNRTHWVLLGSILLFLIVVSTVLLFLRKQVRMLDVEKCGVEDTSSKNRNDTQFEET

Row | Substance | PD-L1 expression (percentage of positive cells) ([1]; 1 h) [%] | PD-L1 expression (percentage of positive cells) ([1]; 48 h) [%] | phagocytic index (%) [2]
1 | D-peptide NYSKPTDRQYHF [PD-L1-ligand] | 3.29 | 7.82 | 
2 | EEELQIIQPDKSVLVAAGETATLRCTITSLFPVGPIQWFRGAGPGRVLIYNQRQGPFPRVTTVSDTTKRNNMDFSIRIGNITPADAGTYYCIKFRKGSPDDVEFKSGAGTELSVRAKP [CD47-ligand] |  |  | similar
